Tests used:
RPMI8226 tumors = experiment: Subcutaneous RPMI8226 multiple myeloma model in mice; format: in vivo
Protocol: Tissue sections were deparaffinized with xylene, rehydrated and microwaved and then incubated with primary antibodies diluted in 1% (wt/vol) BSA and visualized by standard avidin–biotin–peroxidase complex technique (Vector Laboratories, Burlingame, CA, USA). Counterstaining was performed with Mayer’s haematoxylin. Slides were mounted in Vectashield containing DAPI and images recorded in a Zeiss Axioplan 2 fluorescence microscope. Antibodies: KI67 Dako #M7240 (1:100)(using Rodent Block (Biocare-RBM961) and Envision Plus anti-mouse labeled polymer (Dako K4001); Ub-K48 (Millipore-05-1307) (1:100) (serum free Protein block (Dako-X0909)) and Envision + anti-rabbit labeled polymer (Dako-K4003); CXCR4 (Sigma-C3116) (1:400) (Dako-X0909) and Envision + anti-rabbit labeled polymer (Dako-K4003); cleaved casapse-3 (Cell Signaling-9664) (1:100) (Dako-X0909) and Envision + anti-rabbit labeled polymer (Dako-K4003).
Two different multiple myeloma models were used. Experimental protocols and methods were performed by Accelera (Nerviano, Italy) in accordance with guidelines and with permission from the local ethics committee (Nerviano Medical Sciences (NMS) Ethic Committee). All experimental protocols were approved by the Nerviano Medical Sciences (NMS) Ethic Committee. Study director was Marina Ciomei. SCID female mice were obtained from Charles River, Italy. Body weights at the day of tumor implant were between 19 and 22 grams. Treatment started at day 7 after injection of tumor cells and continued for 10 consequtive days. Mice were monitored daily for mortality and clinical signs. In the KMS-11 model, antitumor efficacy was evaluated in terms of survival increase respect to control. In the RPMI8226 model, the growth of subcutaneous tumors was recorded. For imaging, mice were injected intraperitoneally with 150 mg/kg d-luciferin (Promega) followed by anesthetization in 2–3% isoflurane atmosphere. After 10–12 minutes of biodistribution time, mice were imaged using a charge coupled device (CCD camera, Xenogen IVIS Lumina System) to evaluate the bioluminescence in the animal. Nose-cone isoflurane delivery system and heated stage for maintaining body temperature were used. A gray-scale image of the mice was captured, followed by an overlay of a bioluminescence map representing the spatial distribution of photons detected from cleaved luciferin in the cancer cells expressing luciferase. Signal intensity was quantified using a customized version of the IGOR Pro version 4.09A Software (WaveMetrics, Inc., Lake Oswego, OR) called Living Image version 3.00 (Xenogen). Photon emission was measured as whole-body radiance and the individual regions of interest (ROIs) were manually selected. Data were expressed as photon/second/cm^2/steradian.

RPMI8226 = experiment: MTT antiproliferative assay, RPMI8226; format: cell-based; conditions: Homo sapiens, RPMI-8226, 72 hours
Protocol: Cell viability was monitored by the MTT (3-(4,5-dimethylthiazol-2-yl)-2,5-diphenyltetrazolium bromide) assay. For the MTT assay, cells were suspended at 5 × 10^5 cells/ml, and 100 μl aliquots were dispended into 96-well microtiter plates and exposed to drugs as described using DMSO control. At the end of incubations, 10 μl of a stock solution of 5 mg/ml MTT (3-(4,5-dimethylthiazol-2-yl)-2,5-diphenyltetrazolium bromide), was added into each well, and the plates were incubated 4 hours at 37 °C. Formazan crystals were dissolved with 100 μl of 10% SDS/10 mM HCl solution overnight at 37 °C. Since MTT assays are affected by mitochondrial activity, and since OXPHOS is affected by VLX1570 (unpublished observation), we used the acid phosphatase method[49] to determine cell viability in some experiments. After washing twice with PBS, cells were lysed in 100 μl of 0.1 M sodium acetate, 0,1% Triton X-100, p-nitrophenylphosphate (Pierce Biotechnology Inc, Rockford, IL) and incubated for 90 min at 37 °C. At the end of the incubation, 10 μl NaOH was added to each well and A405 was determined.

MM cells = experiment: Immunoblotting of polyubiquitinated proteins in MM cells; format: cell-based, human; conditions: 0.5 μM, 6 or 18 h
Protocol: Cell extract proteins were resolved by Tris-Acetate PAGE gels (Invitrogen, Carlsbad, CA) and transferred onto a polyvinylidene difluoride (PVDF) membrane for western blotting. For Ub-VS labeling, we lysed cell pellets from control or treated cells with buffer (50 mM HEPES pH 7.4, 250 mM sucrose, 10 mM MgCl2, 2 mM ATP, 1 mM DTT and 1%NP-40) on ice for 30 min and removed debris by centrifugation. We labeled 25 μg of protein with 1 μM Ub-VS for 30 min at 37 °C. We resolved samples by SDS-PAGE and performed immunoblotting. For HA-Ub-VS labeling, we pretreated purified 19S (5 nM) with DMSO or 2.5, 5, 10, 15 or 25μM 1570 for 10 min at room temperature, which followed with labeling with 1 μM HA-Ub-VS for 30 min at 37 °C and immunoblotting.

USP14 = USP14 (Homo sapiens, UniProt P54578); experiment: SPR binding to recombinant USP14, CM7 chip; conditions: protein from Karolinska Institute Protein Science Facility, read-out: USP14(K) KD
Sequence of USP14 (P54578 whole entry): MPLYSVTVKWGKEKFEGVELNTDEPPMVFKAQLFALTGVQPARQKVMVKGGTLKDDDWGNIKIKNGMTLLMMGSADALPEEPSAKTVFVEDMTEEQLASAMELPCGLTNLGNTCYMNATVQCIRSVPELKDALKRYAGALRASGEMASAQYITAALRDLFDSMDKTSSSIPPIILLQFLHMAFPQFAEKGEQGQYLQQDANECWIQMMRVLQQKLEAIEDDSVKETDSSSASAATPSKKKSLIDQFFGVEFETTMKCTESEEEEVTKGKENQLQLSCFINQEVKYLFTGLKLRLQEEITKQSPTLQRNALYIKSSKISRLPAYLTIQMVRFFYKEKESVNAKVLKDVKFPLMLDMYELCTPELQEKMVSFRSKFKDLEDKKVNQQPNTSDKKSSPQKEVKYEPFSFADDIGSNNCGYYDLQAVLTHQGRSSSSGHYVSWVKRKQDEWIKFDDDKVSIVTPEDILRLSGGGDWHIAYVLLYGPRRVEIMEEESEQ
Source text: A BIACORE T200 was used for characterization of the interaction between compounds and USP14, UCHL5 and 26S proteasome. The standard BIACORE protocols were used for NTA chip (Ni/His-tag immobilization) and CM7 chip for compound interaction studies with slight modification described below. The x6 his-tagged USP14 and UCHL5 proteins were coupled to a Series S NTA BIACORE sensor chip in the BIACORE T200 using the his-tags for adherence of the proteins to the surface and an amine coupling procedure for covalent attachment to the chip surface. NTA chip was cleaned using three 500 μM EDTA injections followed by an injection of 500 μM Ni^2+ and activation of the chip surface with EDC/NHS injection according to BIACORE standard methods. Each chip has four separate areas, which were handled separately during the immobilization procedure. Area 1 was used as blank reference surface, area 2–4 was coupled with investigated recombinant proteins or complexes. Proteins were diluted in running buffer (10 mM HEPES, 150 mM NaCl, 0,005% Tween 20) to typically 10 μg/ml before injection(1 mL) over the prepared surfaces. […] The immobilization procedure was followed by injections of compound concentration series of VLX1570. […] Rmax and KD were calculated using Langmuir binding isotherms as provided in the Biacore software.

With C=CC(=O)N1CC/C(=C\c2ccc(F)c([N+](=O)[O-])c2)C(=O)/C(=C/c2ccc(F)c([N+](=O)[O-])c2)C1 [VLX1570] the tumor growth (RPMI8226 tumors; 3 mg/kg, 10 consecutive days, subcutaneous RPMI8226) was “significant decrease in tumor growth”, the “CXCR4 staining in tumors (immunohistochemistry)” value (RPMI8226 tumors; RPMI8226 tumors, 3 mg/kg) was “decreased CXCR4 staining” and the “K48-linked ubiquitin chains in tumors” value (RPMI8226 tumors; RPMI8226 tumors, 3 mg/kg) was “increases in K48-linked ubiquitin chains”. The “active caspase-3 in tumors” value (RPMI8226 tumors; RPMI8226 tumors, 3 mg/kg) was “increased active caspase-3”, the “ERK phosphorylation in RPMI8226 cells in vivo” value (RPMI8226 tumors; after exposure of mice) was “decreased ERK phosphorylation” and the IC50 (RPMI8226) was 0.074 ± 0.002 µM. The “accumulation of polyubiquitinated proteins” value (MM cells) was “polyubiquitinated proteins accumulated” and the Kd (USP14) was 35 µM.
